Structures can show the parent of a compound that is named as a salt.
Assays:
[1] = system: sodium channel; assay: [14C]guanidine flux: veratrine-evoked uptake of [14C]guanidine into rat forebrain synaptosomes (primary sodium channel assay); assay type: biochemical; conditions: 30° for 2½ min
Description: The screening strategy is designed to select compounds with appropriate sodium channel blocking activity and low side effect liability. To this end all compounds are processed through the primary sodium channel assay (veratrine-evoked uptake of [^14C]guanidine into rat forebrain synaptosomes) and IC50 values computed from generated concentration-effect curves.
Experiments were performed using forebrain (whole brain less cerebellum/medulla) from Male Wistar rats weighing 175-250 g. All efforts were made to reduce the number of animals used and all experiments were carried out in accordance with the UK Animals (Scientific Procedures) Act, 1986 and the European Community Council Directive of 24 Nov. 1986 (86/609/EEC). Following killing of animals by stunning and decapitation, the forebrain (whole brain less cerebellum/medulla) was rapidly dissected and transferred to a weighed tube containing ice-cold 0.25M sucrose.
Synaptosomes (heavy and light mitochondrial fraction containing synaptosomes) were prepared by transferring the forebrain (of known wet weight) to a glass Potter vessel to which 9 volumes ice-cold 0.25M sucrose had been added and homogenising, using a teflon pestle, by 8 ‘up and down strokes’ of a Braun Potter S motor driven homogeniser set to 900 rpm. The resulting homogenate was centrifuged at 1036×g at 4° for 10 min and the supernatant collected. The remaining pellet was resuspended, as above, in fresh ice-cold 0.25M sucrose and the centrifugation step repeated. The supernatant fractions were pooled and centrifuged at 40,000×g (average) at 4° for 15 min and the resulting pellet resuspended in the appropriate assay buffer at a concentration of 20-25 mg wet weight per ml appropriate assay buffer.
Both assays were carried out using 14 ml polypropylene test tubes to which a range of concentrations of the compounds under test were added.
The [^14C] guanidinine flux assay was measured using the method of Pauwels P J et al (1986) but carried out@30° for 2½ min.
(§1) Data are presented as mean±sem of number of experiments indicated in brackets.

[2] = target: T1, DiHydroFolate Reductase (DHFR) (Rattus norvegicus, UniProt Q920D2); assay: Inhibition of binding of [3H]methotrexate to rat liver homogenate supernatant; conditions: for inhibition at 125 µM: read-out: [3H]mtx binding (% inhibition @ 125 μM); for inhibition at 99 µM: read-out: [3H]mtx binding % inhibition (* 99 μM, *** uses fresh batch of supernatant), 99 μM, fresh batch of supernatant
T1 construct: from tissue; host or cells: rat liver homogenate supernatant
T1 sequence (Q920D2 1-187): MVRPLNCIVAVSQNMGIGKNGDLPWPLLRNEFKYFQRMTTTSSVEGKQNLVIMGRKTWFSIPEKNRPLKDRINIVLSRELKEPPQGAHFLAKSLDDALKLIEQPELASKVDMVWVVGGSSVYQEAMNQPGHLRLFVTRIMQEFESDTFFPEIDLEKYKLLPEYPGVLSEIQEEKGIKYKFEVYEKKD
Description: All steps were carried out at 4° (or on ice). Freshly dissected rat liver was dissected into 0.25M ice-cold Sucrose and subsequently homogenised (U-turrax) in 50 mM pH 6.0 phosphate buffer (10 ml/g tissue) containing 15 mM Dithiothreitol. The resulting homogenate was centrifuged@47,500×g for 20 min and supernatant (filtered through cotton wool to remove fatty lumps) stored @ −80° before use (Rothenberg et al).
Inhibition of the binding of [^3H]methotrexate to rat liver homogenate supernatant fractions were carried out essentially as described by Arons et al, 1975.
as §1

Structure (SMILES): Cn1nc(-c2cc(C(F)(F)F)cc(Cl)c2F)c(N)nc1=N (as salt: mesylate) [CEN-202, 5(3)-Amino-6-(3-chloro-2-fluoro-5-trifluoromethyphenyl)-2,3(2,5)-dihydro-3(5)-imino-2-methyl-1,2,4-triazine mesylate]
- melting point: 277 to 279 °C

Structure (SMILES): CCn1nc(-c2cc(C(F)(F)F)cc(Cl)c2F)c(N)nc1=N (as salt: mesylate) [CEN-203, 5(3)-Amino-6-(3-chloro-2-fluoro-5-trifluoromethyphenyl)-2,3(2,5)-dihydro-3(5)-imino-2-ethyl-1,2,4-triazine mesylate]
- melting point: 277 to 279 °C

Structure (SMILES): Cn1nc(-c2cc(F)c(F)cc2Cl)c(N)nc1=N (as salt: mesylate) [CEN-204, 5(3)-Amino-6-(2-chloro-4,5-difluoro-5-phenyl)-2,3(2,5)-dihydro-3(5)-imino-2-methyl-1,2,4-triazine mesylate]
- melting point: 319 to 321 °C

Structure (SMILES): Cn1nc(-c2cccs2)c(N)nc1=N (as salt: methanesulfonate) [CEN-61, 5(3)-Amino-6-(2-thienyl)-2,3(2,5)-dihydro-3(5)-imino-2-methyl-1,2,4-triazine methanesulfonate]
- melting point: 201 to 202 °C

Structure (SMILES): CCn1nc(-c2cccs2)c(N)nc1=N (as salt: methanesulfonate) [CEN-62, 5(3)-Amino-6-(2-thienyl)-2,3(2,5)-dihydro-3(5)-imino-2-ethyl-1,2,4-triazine methanesulfonate]
- melting point: 194 to 196 °C

Structure (SMILES): CCn1nc(-c2ccc3ccccc3c2)c(N)nc1=N (as salt: methanesulfonate) [CEN-75, 5(3)-Amino-6-(2-naphthyl)-2,3(2,5)-dihydro-3(5)-imino-2-ethyl-1,2,4-triazine methanesulfonate]
- melting point: 175 to 177 °C

Structure (SMILES): Cn1nc(-c2ccc3ccccc3c2)c(N)nc1=N (as salt: methanesulfonate) [CEN-76, 5(3)-Amino-6-(2-naphthyl)-2,3(2,5)-dihydro-3(5)-imino-2-methyl-1,2,4-triazine methanesulfonate]
- melting point: 243 to 244 °C

Structure (SMILES): Cn1nc(-c2cc(C(F)(F)F)cc(C(F)(F)F)c2)c(N)nc1=N (as salt: methanesulfonate) [CEN-99, 5(3)-Amino-6-[3,5-(bis-trifluoromethyl)phenyl]-2,3(2,5)-dihydro-3(5)-imino-2-methyl-1,2,4-triazine methanesulfonate]
- melting point: 179 to 181 °C

Structure (SMILES): COc1cc(-c2nn(C)c(=N)nc2N)cc(OC)c1OC (as salt: methanesulfonate) [CEN-101, 5(3)-Amino-6-(3,4,5-trimethoxyphenyl)-2,3(2,5)-dihydro-3(5)-imino-2-methyl-1,2,4-triazine methanesulfonate]
- melting point: 258 to 259 °C

Structure (SMILES): Cn1nc(-c2ccc(Oc3ccccc3)cc2)c(N)nc1=N (as salt: methanesulfonate) [CEN-102, 5(3)-Amino-6-(4-phenoxyphenyl)-2,3(2,5)-dihydro-3(5)-imino-2-methyl-1,2,4-triazine methanesulfonate]
- melting point: 174 to 176 °C

Structure (SMILES): CCn1nc(-c2cc(OC)c(OC)c(OC)c2)c(N)nc1=N (as salt: methanesulfonate) [CEN-119, 5(3)-Amino-6-(3,4,5-trimethoxyphenyl)-2,3(2,5)-dihydro-3(5)-imino-2-ethyl-1,2,4-triazine methanesulfonate]
- melting point: 305 to 306 °C

Structure (SMILES): Cn1nc(-c2cccc3c2CCCC3)c(N)nc1=N (as salt: methanesulfonate) [CEN-120, 5(3)-Amino-6-[1-(5,6,7,8-tetrahydronaphthyl)]-2,3(2,5)-dihydro-3(5)-imino-2-methyl-1,2,4-triazine methanesulfonate]
- melting point: 236 to 237 °C

Structure (SMILES): Cn1nc(-c2cc(Br)c(Br)o2)c(N)nc1=N (as salt: methanesulfonate) [CEN-135, 5(3)-Amino-6-[2-(4,5-dibromofuryl)]-2,3(2,5)-dihydro-3(5)-imino-2-methyl-1,2,4-triazine methanesulfonate]
- melting point: 183 to 185 °C

Structure (SMILES): Cn1nc(-c2ccccc2OC(F)F)c(N)nc1=N (as salt: methanesulfonate) [CEN-146, 5(3)-Amino-6-(2-difluoromethoxyphenyl)-2,3(2,5)-dihydro-3(5)-imino-2-methyl-1,2,4-triazine methanesulfonate]
- melting point: 213 to 215 °C

Structure (SMILES): Cn1nc(C(C)(c2ccccc2)c2ccccc2)c(N)nc1=N (as salt: methanesulfonate) [CEN-149, 5(3)-Amino-6-(1,1-diphenylethyl)-2,3(2,5)-dihydro-3(5)-imino-2-methyl-1,2,4-triazine methanesulfonate]
- melting point: 240 to 242 °C

Structure (SMILES): Cn1nc(C2(c3ccc(Cl)cc3)CCCC2)c(N)nc1=N (as salt: methanesulfonate) [CEN-150, 5(3)-Amino-6-{1-[1-(4-chlorophenyl)]cyclopentyl}-2,3(2,5)-dihydro-3(5)-imino-2-methyl-1,2,4-triazine methanesulfonate]
- melting point: 272 to 273 °C

Structure (SMILES): Cn1nc(-c2cccc(-c3ccccc3)c2)c(N)nc1=N (as salt: methanesulfonate) [CEN-161, 5(3)-Amino-6-(3-biphenyl)-2,3(2,5)-dihydro-3(5)-imino-2-methyl-1,2,4-triazine methanesulfonate]
- melting point: 180 to 181 °C

Structure (SMILES): CCn1nc(-c2cccc(-c3ccccc3)c2)c(N)nc1=N (as salt: methanesulfonate) [CEN-162, 5(3)-Amino-6-(3-biphenyl)-2,3(2,5)-dihydro-3(5)-imino-2-ethyl-1,2,4-triazine methanesulfonate]
- melting point: 224 to 226 °C

Structure (SMILES): Cn1nc(-c2sc(Cl)c(Cl)c2Cl)c(N)nc1=N (as salt: methanesulfonate) [CEN-194, 5(3)-Amino-6-{2-(3,4,5-trichloro)thienyl}-2,3(2,5)-dihydro-3(5)-imino-2-methyl-1,2,4-triazine methanesulfonate]
- melting point: 192 to 194 °C

Structure (SMILES): CCn1nc(-c2cccc(C(F)(F)F)c2Cl)c(N)nc1=N [CEN-178, 5(3)-Amino-6-(2-chloro-3-trifluoromethyphenyl)-2,3(2,5)-dihydro-3(5)-imino-2-ethyl-1,2,4-triazine methanesulphonate]
- IC50 [1]: 28 µM
- inhibition at 125 µM [2]: 27%

Structure (SMILES): CC(C)c1cc(C(C)C)c(-c2nnc(N)nc2N)c(C(C)C)c1 [CEN-180, 3,5-Diamino-6-(2,4,6-triisopropylphenyl)-1,2,4-triazine tosylate]
- IC50 [1]: > 2000 µM
- inhibition at 125 µM [2]: -2%

Structure (SMILES): Nc1nnc(-c2ccc(F)c(Oc3ccccc3)c2)c(N)n1 [CEN-184, 3,5-Diamino-6-(4-fluoro-3-phenoxylphenyl)-1,2,4-triazine tosylate]
- IC50 [1]: 34 µM
- inhibition at 125 µM [2]: 104%

Structure (SMILES): Nc1nnc(-c2cccc(-c3nnc(N)nc3N)c2)c(N)n1 [CEN-186]
- IC50 [1]: > 2000 µM
- inhibition at 125 µM [2]: 83%

Structure (SMILES): Nc1nnc(-c2nc(Cl)ccc2Cl)c(N)n1 [CEN-188, 3,5-Diamino-6-[2-(3,6-dichloropyidyl)]-1,2,4-triazine]
- IC50 [1]: 2570 µM
- inhibition at 125 µM [2]: 76%

Structure (SMILES): Nc1nnc(-c2cc(F)c(Cl)nc2Cl)c(N)n1 [CEN-190, 3,5-Diamino-6-[3-(2,6-dichloro-5-fluoropyidyl)]-1,2,4-triazine]
- IC50 [1]: 813 µM
- inhibition at 125 µM [2]: 6%

Structure (SMILES): Nc1nnc(-c2ccc(Cl)nc2)c(N)n1 [CEN-191, 3,5-Diamino-6-[3-(6-chloro-pyridyl)]-1,2,4-triazine]
- IC50 [1]: 1950 µM
- inhibition at 125 µM [2]: 31%

Structure (SMILES): Cn1nc(-c2sc(Cl)c(Cl)c2Cl)c(N)nc1=N [CEN-194, 5(3)-Amino-6-{2-(3,4,5-trichloro)thienyl}-2,3(2,5)-dihydro-3(5)-imino-2-methyl-1,2,4-triazine methanesulfonate]
- IC50 [1]: 9 µM
- inhibition at 99 µM [2]: -6%

Structure (SMILES): CCn1nc(-c2sc(Cl)c(Cl)c2Cl)c(N)nc1=N [CEN-195, 5(3)-Amino-6-{2-(3,4,5-trichloro)thienyl}-2,3(2,5)-dihydro-3(5)-imino-2-ethyl-1,2,4-triazine methanesulfonate]
- IC50 [1]: 4 µM
- inhibition at 99 µM [2]: -2%

Structure (SMILES): Nc1nnc(-c2ccco2)c(-c2ccco2)n1 [CEN-196, 3-Amino-5,6-bis(2-furyl)-1,2,4-triazine]
- IC50 [1]: 912 µM
- inhibition at 99 µM [2]: 41%

Source: patent US8691818B2, “Cyclic triazo and diazo sodium channel blockers” (University Of Greenwich, priority 2008, dated 2014)
